The source of these data is publication PMC6332255, “Evaluation of the Cytotoxicity of α-Cyclodextrin Derivatives on the Caco-2 Cell Line and Human Erythrocytes” (Molecules, 2015).

As a reminder, the HC50 is the concentration that lyses half of the red blood cells. A low value points to more damage to red cells. In general, IC50 refers to the midpoint of a concentration-inhibition curve. A higher IC50 goes with lower potency.

The subject of one data set is human erythrocytes. The experiment in a line: Hemolysis test on human red blood cells. In kind it is cell-based. The following applies: for concentration up to which not hemolytic / HC50: 10 min; for HC50: PBS pH 7.2, 37 °C, mean ± SD. As for the experimental part:
Hemolysis test was performed on fresh human blood. Erythrocytes were separated from citrated blood by centrifugation at 2500× g for 10 min.; washed three times with PBS and resuspended in the same solution. Aliquots of the cell suspension with the respective red blood cell number of 5 × 10^7 were added to the buffer solution (PBS pH 7.2) containing increasing concentrations of the samples investigated in the study. After mixing them gently, each solution was incubated at 37 °C for 10 min and then centrifuged at 5000× g. Finally, the absorbance of the hemoglobin released into the supernatant was measured at 540 nm with a FLUOstar OPTIMA Microplate Reader. The percentage of hemolysis was expressed as the ratio of hemoglobin in the supernatant of the sample solutions related to the hemoglobin concentration after the complete hemolysis of erythrocytes in water. The dose-response curve was determined, and the concentration inducing hemolysis in 50% of the erythrocyte population (HC50) was subsequently calculated.

Data set [1] has as its system Caco-2 cells. Put plainly: MTT cell viability assay on Caco-2 cells. In kind it is cell-based, human. The following applies: for concentration up to which no toxic effect (MTT): 30 min; for IC50: 30 min incubation at 37 °C in PBS, mean ± SD. As for the experimental part: (§1) Caco-2 cell line was obtained from the European Collection of Cell Cultures (ECACC). Cells were grown in plastic cell culture flasks in Dulbecco’s Modified Eagle’s Medium supplemented with 3.7 g/L NaHCO3, 10% (v/v) heat-inactivated fetal bovine serum (FBS), 1% (v/v) non-essential amino acids solution, 1% (v/v) L-glutamine, 100 IU/mL penicillin, and 100 µg/mL streptomycin at 37 °C in an atmosphere of 5% CO2. The cells were routinely maintained by regular passaging. For cytotoxic and transport experiments, cells were used between passage numbers 20 and 40. The culture media were replaced with fresh media in every 72 h.
The MTT assay was performed on Caco-2 cells. The cells were seeded in 96 well plates until the cell monolayer become confluent. The medium was changed once. After one week the medium was removed, the cells were washed with PBS and exposed to increasing concentrations of α-CDs dissolved in phosphate buffer saline (PBS). Cells were incubated for 30 min on 37 °C. Control groups were processed equally and incubated without CD simultaneously. After treatment MTT dye (3-(4,5-dimethylthiazol-2-yl))-2,5-diphenyltetrazolium bromide, 5 mg/mL) was applied to each well for 3 h. MTT solution was removed and isopropanol-hydrochloric acid (25:1) was added to dissolve the formed formazan crystals. The absorbance was measured at 570 nm against a 690 nm reference with a FLUOstar OPTIMA Microplate Reader. Cell viability was expressed as the percentage of untreated control.

Data set [2] deals with Caco-2 cells. The experiment in a line: Real-time cell electronic sensing (RT-CES) on Caco-2 cells. In kind it is cell-based, human. The following applies: for concentration up to which non-toxic (RT-CES): up to 8 h; for IC50: up to 8 h treatment, impedance cell index; for toxicity by RT-CES, result in words: prolonged exposition time (up to 8 h) versus 30 min MTT. As for the experimental part:
as §1
Real-time cell electronic sensing (RT-CES) is a label-free technique for dynamic monitoring of living cells. The xCELLigence system (Roche, Basel, Switzerland) utilizes an electronic readout called impedance to non-invasively quantify adherence cell proliferation and viability. E-plates (Roche) contain gold microelectronic sensor arrays. The interaction between cells and the electrode generates impedance response that correlates linearly with cell index reflecting cell number, adherence and cell growth. This method is more sensitive and informative than colorimetric end-point assays to test pharmaceutical excipients.
The E-plate was coated with 0.2% rat tail collagen–DW solution for 20 min at 37 °C. Culture media (60 μL) was added to each well for background readings than 100 µL Caco-2 cell suspension was dispensed at the density of 1.5 × 10^4 cells/well. The cells were grown for 2 days. The medium was changed to excipients solutions and the cells in the E-plate were kept in an incubator at 37 °C for 8 h and monitored every 5 min.
The cell index at each time point was defined as (Rn − Rb)/15, where Rn is the cell-electrode impedance of the well when it contains cells and Rb is the background impedance of the well with the media alone.

Data set [3] in a line: Solubility of the samples in isotonic PBS. In kind it is physicochemical. The following applies: isotonic phosphate buffered saline (PBS). As for the experimental part:
α-Cyclodextrin derivatives were generously offered by Cyclolab Ltd. (Cyclodextrin Research & Development Laboratory, Budapest, Hungary). […] We investigated each α-CD in 7 different concentrations: 0.01; 0.1; 1; 10; 25; 50 and 100 mM, with the exception of TRIMEA, which was not soluble above 30 mM. The solid samples were dissolved in isotonic phosphate buffered saline (PBS), purchased from Sigma–Aldrich (Budapest, Hungary) (Table 2.)

As for (2-hydroxy) propyl α-CD [HPACD], in the data set with human erythrocytes, the “concentration up to which not hemolytic” value was over 100000 µM and the HC50 is over 100 mM. For the same molecule, the HC50 in the data set on human erythrocytes (listed as Hydroxypropyl) is listed as over 100 mM. Further, in the data set on Caco-2 cells [1], the “concentration up to which no toxic effect (MTT)” value is over 100000 µM and the concentration for half-maximal inhibition (IC50) was over 100 mM. Further, in the data set with Caco-2 cells [2], the “concentration up to which non-toxic (RT-CES)” value was over 100000 µM and the IC50 was over 100 mM.

For randomly methylated α-CD [RAMEA], the concentration for 50% haemolysis (HC50) in the data set on human erythrocytes is listed as 15.5 ± 0.01 mM. It took 78.6 ± 15.8 mM to reach half-maximal inhibition in the data set on Caco-2 cells [1] (IC50).

As for acetylated α-CD [AcACD], in the data set with human erythrocytes, the “concentration up to which not hemolytic” value was over 100000 µM and the HC50 was over 100 mM. Moreover, in the data set on human erythrocytes (listed as acetyl), the HC50 was over 100 mM. Moreover, in the data set on Caco-2 cells [1], the “concentration up to which no toxic effect (MTT)” value is over 100000 µM and the IC50 was over 100 mM. Moreover, in the data set on Caco-2 cells [2], the “concentration up to which non-toxic (RT-CES)” value was over 100000 µM and the IC50 was over 100 mM.

As for `OC[C@H]1O[C@@H]2O[C@H]3[C@H](O)[C@@H](O)[C@@H](O[C@H]4[C@H](O)[C@@H](O)[C@@H](O[C@H]5[C@H](O)[C@@H](O)[C@@H](O[C@H]6[C@H](O)[C@@H](O)[C@@H](O[C@H]7[C@H](O)[C@@H](O)[C@@H](O[C@H]1[C@H](O)[C@H]2O)O[C@@H]7CO)O[C@@H]6CO)O[C@@H]5CO)O[C@@H]4CO)O[C@@H]3CO` [native, α-cyclodextrin], the figures for the HC50 in the data set with human erythrocytes and with human erythrocytes (listed as Native α-CD) were 16.0 ± 0.02 mM and 16 mM, respectively. The IC50 in the data set with Caco-2 cells [1] (Homo sapiens, 0.5 h) is 46.1 ± 9.2 mM; in the data set on Caco-2 cells [2] (Homo sapiens) it was over 25 mM.

In the case of sulfated α-CD, in the data set on human erythrocytes, the HC50 was over 100 mM. In addition, in the data set with Caco-2 cells [1], the “concentration up to which no toxic effect (MTT)” value is over 100000 µM and the IC50 is over 100 mM. In addition, the “toxicity by RT-CES, result in words” value in the data set on Caco-2 cells [2] is listed as “toxic when the exposition time was prolonged”.

phosphated α-CD sodium salt: in the data set with human erythrocytes, the “hemolysis, result in words” value is “did not result in hemolysis” and the HC50 was over 100 mM. The IC50 in the data set with Caco-2 cells [1] amounted to 7.8 ± 8.6 mM.

succinylated α-CD [SuACD]: the HC50 with human erythrocytes stood at 9.6 ± 0.03 mM. Also, the half-maximal inhibitory concentration (IC50) in the data set with Caco-2 cells [1] was 19 ± 8.8 mM; in the data set with Caco-2 cells [2] it was over 1 mM.

Turning to “carboxymethylated α-CD sodium salt [CMACD]”, in the data set on human erythrocytes, the HC50 is over 100 mM. Besides, in the data set on human erythrocytes (listed as carboxymethylated), the 50% haemolytic concentration (HC50) was over 100 mM. Further, in the data set on Caco-2 cells [1], the “concentration up to which no toxic effect (MTT)” value is over 100000 µM and the IC50 is over 100 mM. Also, in the data set on Caco-2 cells [2], the “toxicity by RT-CES, result in words” value is on record as “toxic when the exposition time was prolonged”.

Take `COC[C@H]1O[C@@H]2O[C@@H]3[C@@H](OC)[C@@H](OC)[C@@H](O[C@@H]4[C@@H](OC)[C@@H](OC)[C@@H](O[C@@H]5[C@@H](OC)[C@@H](OC)[C@@H](O[C@@H]6[C@@H](OC)[C@@H](OC)[C@@H](O[C@@H]7[C@@H](OC)[C@@H](OC)[C@@H](O[C@@H]1[C@@H](OC)[C@H]2OC)O[C@@H]7COC)O[C@@H]6COC)O[C@@H]5COC)O[C@@H]4COC)O[C@@H]3COC` [TRIMEA, hexakis-(2,3,6-tri-O-methyl)-α-CD]: the HC50 in the data set with human erythrocytes was found to be 1.9 ± 0.01 mM. The IC50 is 1.8 ± 0.8 mM with Caco-2 cells [1] and over 1 mM in the data set with Caco-2 cells [2]. Further, the solubility limit in data set [3] was at most 30 mM.
